Experimental data taken from patent publication US20240376097A1, “BCL-2 Inhibitor” (BeiGene Ltd., priority 2020, published 2024).

Columns and labels:
[1] = tested on: RS4;11 (BCL-2 dependent acute lymphoblastic leukemia cell line); test: RS4;11 Cell Proliferation Assay; assay type: cell-based; details: Homo sapiens, RS4-11, RS4;11 cells, read-out: Cellular proliferation assay (IC50, nM) RS4
How it was run: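 RS4;11 cells, 50,000 per well in RPMI-1640 with 10% FBS, treated 48 h at 37 °C with a 10-point dilution series topping at 1 μM. Viability read by CellTiter-Glo ATP luminescence; mean IC50 reported.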

[2] = tested on: BCL-2 G101V knock-in cell line H96 (derive from RS4;11); test: Bcl 2-G101V Knock-In RS4;11 Cell Proliferation Assay; assay type: cell-based; details: Homo sapiens, RS4;11 Bcl-2 G101V knock-in clone H96, 48 hrs, CellTiter-GLO, read-out: Cellular proliferation assay (IC50, nM) RS4
How it was run: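 H96, a CRISPR-generated RS4;11 clone carrying BCL2-G101V knock-in (WES/RNA-seq validated), seeded 50,000 per well and exposed 48 h at 37 °C to 10-point dilutions topping at 1 or 10 μM. Viability by CellTiter-Glo luminescence; mean IC50.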

[3] = tested on: recombinant human Bcl-2-G101V protein; test: Bcl-2-G101V TR-FRET Assay; assay type: binding; details: ratio of biochemical IC50 Bcl-2 G101V / Bcl-2 WT
How it was run: (§1)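 Displacement of ligand from recombinant human Bcl-2-G101V measured by TR-FRET (ex337 nm, em490/520 nm), inhibition derived from the 490/520 ratio across compound titrations. IC50 from four-parameter logistic fit.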

[4] = target: recombinant human Bcl-2-G101V protein (Homo sapiens (Human), UniProt P10415, G101V); test: Bcl-2-G101V TR-FRET Assay; assay type: binding; details: Bcl-2 G101V mutant, TR-FRET; read-out: Biochemical assay (IC50, nM) Bcl-2 G101V
How it was run: as §1

[5] = target: Recombinant human Bcl-2 protein (Homo sapiens (Human), UniProt P10415); test: Bcl-2 TR-FRET Assay; assay type: binding; details: Bcl-2 wild type, TR-FRET; read-out: Biochemical assay (IC50, nM) Bcl-2 WT
How it was run: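 0.05 nM recombinant Bcl-2 preincubated 0.5 h at room temperature with 10-point compound dilutions (top final 1, 0.1, 0.02 or 0.01 uM) in pH 7.5 phosphate buffer. FITC-Bak peptide (0.5 nM) and anti-6His Tb cryptate then added for 1 h. TR-FRET read; IC50 from four-parameter logistic fit.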

Row | SMILES | IC50 [1] [nM] | IC50 [2] [nM] | Ratio of Bcl-2 G101V/WT [3] | IC50 [4] [nM] | IC50 [5] [nM]
1 | CC(C)c1ccccc1[C@@H]1CN(Cc2ccc3c(c2)OCC3)CCN1C1CC2(C1)CN(c1ccc(C(=O)NS(=O)(=O)c3ccc(NC[C@H]4CC[C@](C)(O)CC4)c([N+](=O)[O-])c3)c(Oc3cnc4[nH]ccc4c3)c1)C2 [Example 298, 2-((1H-pyrrolo[2,3-b]pyridin-5-yl)oxy)-4-(6-((R)-4-((2,3-dihydrobenzofuran-6-yl)methyl)-2-(2-isopropylphenyl)piperazin-1-yl)-2-azaspiro[3.3]heptan-2-yl)-N-((4-((((1r,4r)-4-hydroxy-4-methylcyclohexyl)methyl)amino)-3-nitrophenyl)sulfonyl)benzamide] | 0.24 | 1.82 | 4.6 | 0.45 | 0.099
2 | CC(C)c1ccccc1[C@@H]1CN(Cc2ccc3c(c2)OCC3)CCN1C1CC2(CCN(c3ccc(C(=O)NS(=O)(=O)c4ccc(NC[C@H]5CC[C@](C)(O)CC5)c([N+](=O)[O-])c4)c(Oc4cnc5[nH]cc(F)c5c4)c3)CC2)C1 [Example 305, 4-(2-((R)-4-((2,3-dihydrobenzofuran-6-yl)methyl)-2-(2-isopropylphenyl)piperazin-1-yl)-7-azaspiro[3.5]nonan-7-yl)-2-((3-fluoro-1H-pyrrolo[2,3-b]pyridin-5-yl)oxy)-N-((4-((((1r,4r)-4-hydroxy-4-methylcyclohexyl)methyl)amino)-3-nitrophenyl)sulfonyl) benzamide] | 0.32 | 1.3 | 3.2 | 0.6 | 0.19
3 | CC(C)c1ccccc1[C@@H]1CN(Cc2ccc3c(c2)OCC3(C)C)CCN1C1CC2(CCN(c3ccc(C(=O)NS(=O)(=O)c4ccc(NC[C@H]5CC[C@](C)(O)CC5)c([N+](=O)[O-])c4)c(Oc4cnc5[nH]cc(F)c5c4)c3)CC2)C1 [Example 308, 4-(2-((R)-4-((3,3-dimethyl-2,3-dihydrobenzofuran-6-yl)methyl)-2-(2-isopropylphenyl)piperazin-1-yl)-7-azaspiro[3.5]nonan-7-yl)-2-((3-fluoro-1H-pyrrolo[2,3-b]pyridin-5-yl)oxy)-N-((4-((((1r,4r)-4-hydroxy-4-methylcyclohexyl)methyl)amino)-3-nitrophenyl)sulfonyl)benzamide] | 0.58 | 3.95 | 4.6 | 3.11 | 0.67
4 | CC(C)c1ccccc1[C@@H]1CN(Cc2ccc3c(c2)OCC3(C)C)CCN1C1CC2(C1)CN(c1ccc(C(=O)NS(=O)(=O)c3ccc(NC[C@H]4CC[C@](C)(O)CC4)c([N+](=O)[O-])c3)c(Oc3cnc4[nH]cc(F)c4c3)c1)C2 [Example 311, 4-(6-((R)-4-((3,3-dimethyl-2,3-dihydrobenzofuran-6-yl)methyl)-2-(2-isopropylphenyl)piperazin-1-yl)-2-azaspiro[3.3]heptan-2-yl)-2-((3-fluoro-1H-pyrrolo[2,3-b]pyridin-5-yl)oxy)-N-((4-((((1r,4r)-4-hydroxy-4-methylcyclohexyl)methyl)amino)-3-nitrophenyl)sulfonyl)benzamide] | 0.42 | 2.3 | 3.4 | 1.5 | 0.43
5 | CC(C)c1ccccc1[C@@H]1CN(Cc2ccnc3c2OC(C)(C)CO3)CCN1C1CC2(C1)CN(c1ccc(C(=O)NS(=O)(=O)c3ccc(NC[C@H]4CC[C@](C)(O)CC4)c([N+](=O)[O-])c3)c(Oc3cnc4[nH]cc(F)c4c3)c1)C2 [Example 313, 4-(6-((R)-4-((2,2-dimethyl-2,3-dihydro-[1,4]dioxino[2,3-b]pyridin-8-yl)methyl)-2-(2-isopropylphenyl)piperazin-1-yl)-2-azaspiro[3.3]heptan-2-yl)-2-((3-fluoro-1H-pyrrolo[2,3-b]pyridin-5-yl)oxy)-N-((4-((((1r,4r)-4-hydroxy-4-methylcyclohexyl)methyl)amino)-3-nitrophenyl)sulfonyl)benzamide] | 0.18 | 0.4 | 3.9 | 0.19 | 0.048
6 | CC(C)c1ccccc1[C@@H]1CN(Cc2ccnc3c2OC(C)(C)CO3)CCN1C1CC2(C1)CN(c1ccc(C(=O)NS(=O)(=O)c3ccc(NC[C@H]4CC[C@](C)(O)CC4)c([N+](=O)[O-])c3)c(Oc3cnc4[nH]ccc4c3)c1)C2 [Example 314, 2-((1H-pyrrolo[2,3-b]pyridin-5-yl)oxy)-4-(6-((R)-4-((2,2-dimethyl-2,3-dihydro-[1,4]dioxino[2,3-b]pyridin-8-yl)methyl)-2-(2-isopropylphenyl)piperazin-1-yl)-2-azaspiro[3.3]heptan-2-yl)-N-((4-((((1r,4r)-4-hydroxy-4-methylcyclohexyl)methyl)amino)-3-nitrophenyl)sulfonyl)benzamide] | 0.17 | 0.61 | 4.2 | 0.13 | 0.032
7 | CC(C)c1ccccc1[C@@H]1CN(Cc2cccc3c2OCC(C)(C)O3)CCN1C1CC2(C1)CN(c1ccc(C(=O)NS(=O)(=O)c3ccc(NC[C@H]4CC[C@](C)(O)CC4)c([N+](=O)[O-])c3)c(Oc3cnc4[nH]cc(F)c4c3)c1)C2 [Example 315, 4-(6-((R)-4-((2,2-dimethyl-2,3-dihydrobenzo[b][1,4]dioxin-5-yl)methyl)-2-(2-isopropylphenyl)piperazin-1-yl)-2-azaspiro[3.3]heptan-2-yl)-2-((3-fluoro-1H-pyrrolo[2,3-b]pyridin-5-yl)oxy)-N-((4-((((1r,4r)-4-hydroxy-4-methylcyclohexyl)methyl)amino)-3-nitrophenyl)sulfonyl)benzamide] | 0.18 | 0.86 | 3.2 | 0.99 | 0.31
8 | CC(C)c1ccccc1[C@@H]1CN(Cc2ccnc3c2OCC(C)(C)O3)CCN1C1CC2(C1)CN(c1ccc(C(=O)NS(=O)(=O)c3ccc(NC[C@H]4CC[C@](C)(O)CC4)c([N+](=O)[O-])c3)c(Oc3cnc4[nH]ccc4c3)c1)C2 [Example 316, 2-((1H-pyrrolo[2,3-b]pyridin-5-yl)oxy)-4-(6-((R)-4-((3,3-dimethyl-2,3-dihydro-[1,4]dioxino[2,3-b]pyridin-8-yl)methyl)-2-(2-isopropylphenyl)piperazin-1-yl)-2-azaspiro[3.3]heptan-2-yl)-N-((4-((((1r,4r)-4-hydroxy-4-methylcyclohexyl)methyl)amino)-3-nitrophenyl)sulfonyl)benzamide] | 0.16 | 0.53 | 4.5 | 0.1 | 0.022
9 | COc1cc(CN2CCN(C3CC4(C3)CN(c3ccc(C(=O)NS(=O)(=O)c5ccc(NC[C@H]6CC[C@](C)(O)CC6)c([N+](=O)[O-])c5)c(Oc5cnc6[nH]cc(F)c6c5)c3)C4)[C@H](c3ccccc3C(C)C)C2)ccc1Cl [Example 325, 4-(6-((R)-4-(4-chloro-3-methoxybenzyl)-2-(2-isopropylphenyl)piperazin-1-yl)-2-azaspiro[3.3]heptan-2-yl)-2-((3-fluoro-1H-pyrrolo[2,3-b]pyridin-5-yl)oxy)-N-((4-((((1r,4r)-4-hydroxy-4-methylcyclohexyl)methyl)amino)-3-nitrophenyl)sulfonyl) benzamide] | 0.21 | 0.53 | 2 | 0.97 | 0.49
10 | COc1cc(CN2CCN(C3CC4(C3)CN(c3ccc(C(=O)NS(=O)(=O)c5ccc(NC[C@H]6CC[C@](C)(O)CC6)c([N+](=O)[O-])c5)c(Oc5cnc6[nH]ccc6c5)c3)C4)[C@H](c3ccccc3C(C)C)C2)cc2c1OC(C)(C)C=C2 [Example 329, 2-((1H-pyrrolo[2,3-b]pyridin-5-yl)oxy)-N-((4-((((1r,4r)-4-hydroxy-4-methylcyclohexyl)methyl)amino)-3-nitrophenyl)sulfonyl)-4-(6-((R)-2-(2-isopropylphenyl)-4-((8-methoxy-2,2-dimethyl-2H-chromen-6-yl)methyl)piperazin-1-yl)-2-azaspiro[3.3]heptan-2-yl) benzamide] | 0.25 | 1.3 | 3.1 | 0.47 | 0.15
11 | COc1cc(CN2CCN(C3CC4(C3)CN(c3ccc(C(=O)NS(=O)(=O)c5ccc(NC[C@H]6CC[C@](C)(O)CC6)c([N+](=O)[O-])c5)c(Oc5cnc6[nH]cc(F)c6c5)c3)C4)[C@H](c3ccccc3C(C)C)C2)cc2c1OC(C)(C)C=C2 [Example 330, 2-((3-fluoro-1H-pyrrolo[2,3-b]pyridin-5-yl)oxy)-N-((4-((((1r,4r)-4-hydroxy-4-methylcyclohexyl)methyl)amino)-3-nitrophenyl)sulfonyl)-4-(6-((R)-2-(2-isopropylphenyl)-4-((8-methoxy-2,2-dimethyl-2H-chromen-6-yl)methyl)piperazin-1-yl)-2-azaspiro [3.3]heptan-2-yl)benzamide] | 0.18 | 0.79 | 2.4 | 0.62 | 0.26
